Experimental findings from PMC12320299 (Chemical Science, 2025) are described below.

A short description of this data set: Stability in aqueous solution by ESI-MS. In kind it is physicochemical. Conditions: 50 μM, share of total intensity. The method, then:
In order to elucidate the transformation products of hydrolysis at micromolar concentrations, the four compounds were analogously incubated at 50 μM and analysed by ESI-MS[34] in a time-dependent manner after 1.5 h, 24 h and 72 h. The four complexes of this series were quite stable over 24 h (ESI, Fig. S12 ^†), but gradually released the NQ-ligands over the course of 72 h, which was observed by the formation of characteristic metal(cymene)-dimers containing pyrazole as bridging ligands. In addition, the observation of the free 3-Morph-NQ ligand after 24 h further supported the previously established activation mechanism (ESI, Fig. S12 ^†). A mass signal, which was probably generated by in-source fragmentation corresponded to pyrazole-release. […] In general, the intensity of the intact compounds after 24 h at 50 μM corresponded to approximately 40% of the total intensity of the mass spectrum in all four cases, not accounting for ionization efficiency (Fig. 2B).
Stability Study by UV-Vis Spectroscopy […]
80 µM. The stability of the compounds was monitored in a UV-Vis spectrophotometer (Perkin Elmer lambda 35 photometer) over 96 h by acquiring an UV-Vis spectrum every 30 mins. The percentage of the remaining intact compound was calculated by the ratio of the maximum absorbance of the tridentate complexes’ characteristic absorption band around 350– 370 nm after a given timepoint (A) compared to the one directly after dilution (A0). […]
Samples were diluted to a concentration of 2.5 µM with an organic eluent (49.5% v/v acetonitrile, 49.5% v/v methanol,1% v/v H2O), except ubiquitin containing samples which were diluted to the same concentration with acidified H2O (0.1% v/v formic acid). The samples were then analysed by flow-injection using an amazon speed ETD ion trap (Bruker Daltonics) in the positive ion mode over 0.4 min using the following experimental parameters: HV capillary ±4.5 kV, end plate offset –500 V, dry temp 180 °C, nebulizer 3 bar, dry gas 5 L min-1, scan range m/z 200–1400, target mass m/z 900, flow rate 5 µL min-1. […]

For the compound `CCC1=C2[O][Ru][O]C2(n2cccn2)c2ccccc2C1=O.Cc1ccc(C(C)C)cc1` (stereo not drawn) [Compound 1a, [(3-ethyl-4-oxo-(pyrazolyl)-dihydronaphthalene)(cymene)ruthenium(II)]], the “Intact compound after 24 h, aqueous medium” value (“Intact compound after 24 h” below) was 42%.

For the compound `Cc1ccc(C(C)C)cc1.O=C1C(CN2CCOCC2)=C2[O][Ru][O]C2(n2cccn2)c2ccccc21` (stereo not drawn) [Compound 1b], the “Intact compound after 24 h” value was found to be 47%.

On to `CCC1=C2[O][Os][O]C2(n2cccn2)c2ccccc2C1=O.Cc1ccc(C(C)C)cc1` (stereo not drawn) [Compound 2a], for which the “Intact compound after 24 h” value came to 45%.
